Consider three compounds from patent US20060182726A1, “Immunomodulating compositions, processes for their production and uses therefor” (The University of Queensland, priority 2002, published 2006).

Each structure is given as a SMILES string. Where a SMILES comes first, the peptide text is derived from it. The star is where a group is joined. Cbz = O=C(OCc1ccccc1)*; OtBu = CC(C)(C)O*

One data set relates to BMDCs. Put plainly: Cell surface marker expression, yield and viability of murine BMDCs generated with BAY (flow cytometry). It is filed as cell-based. As for the experimental part: To independently assess the relationship between RelB nuclear translocation and tolerance induction, BMDCs were generated in the presence or absence of the compound BAY 11-7082 (BAY). […] Murine BM precursors were incubated for 6 days with GM-CSF and IL-4 to produce BMDCs, in the presence or absence of BAY. All NF-κB subunits were demonstrable in BMDCs generated in the absence of BAY, and were present in both nuclear and cytoplasmic extracts (FIG. 2a). […] However, CD86 was expressed at higher levels in BAY-treated DCs than RelB-deficient DCs. […] The ability of adoptively-transferred BAY-treated DCs to prime an mBSA-specific T cell proliferative response in naïve syngeneic mice when pulsed with the antigen mBSA was reduced, compared with mBSA-pulsed untreated BMDCs, or immunisation with mBSA and CFA (FIG. 2c).
According to the inventors' experience, every new batch of BAY needs to be titrated. The final concentration for mouse BMDC cultures may range between 2 and 15 μM. Since tolerance induction correlates precisely with CD40 expression by the DC, varying concentrations of BAY are added to BM DC cultures. At day 6-8, yield is check and viability test using PI and CD40 expression by FACS. […]
BMDCs were incubated for 30 min on ice with anti-CD86-FITC (GL1, PharMingen, San Diego, Calif.), anti-CD11c-PE (HL3, PharMingen), anti-CD11b-PE (M1/70, PharMingen), F4/80-PE (Serotec, Raleigh, N.C.), CD8α-PE (53-6.7, PharMingen), CD3-PE (17A2, PharMingen), or with anti-CD40 (3/23, PharMingen), anti-CD19 (1D3, American Type Culture Collection, ATCC), anti-Ly6-g and c (Gr1, RB6-BC5), anti-CD45R (B220, RA3-6B2, each a gift from G. Hill, Queensland Institute for Medical Research, Brisbane, Q1d), anti-MHC class I and anti-MHC class II (2G9, PharMingen), followed by biotinylated rabbit anti-rat Ig (DAKO, CA) and then streptavidin-FITC (DAKO). After washing, cells were analyzed using a FACScalibur (Becton Dickinson, San Jose, Calif.). Intracellular cytokine production was measured in lymphocytes by flow cytometric staining as described, with minor modifications (Sander et al., 1991). […]

Data set [1] concerns human monocyte-derived DC. Put plainly: Phenotype of human monocyte-derived DC by flow cytometry. Type of data set: cell-based. To be noted: human monocytes 48 hours, GM-CSF, IL-4; 10 κM BAY11-7082 or 2.5 or 10 μM PSI; relative to immature DC. The method, then:
FIG. 8 is a graphical representation showing that modified human DC lack CD40 compared to immature DC. MDDC were generated for 48 h from PB monocytes in the presence of GM-CSF and IL-4 in the presence (modified DC) or absence (immature DC) of BAY, then stained for various cell surface markers and analysed by flow cytometry.
FIG. 9 is a graphical representation showing that modified human DC are unresponsive to CD40L. MDDC were generated for 48 h from PB monocytes in the presence of GM-CSF and IL-4 in the presence (modified DC) or absence (immature DC) of BAY, washed then incubated with or without 50 ng/ml soluble CD40L. Cells were then stained for CD86 and HLA-DR and analysed by flow cytometry.
FIG. 22 is a graphical representation showing the phenotype of NF-κB^− dendritic cells is reproducible with different NF-κB inhibitors. Dendritic cells were generated from human monocytes for 48 hours in the presence of GM-CSF, IL-4 and in the presence or absence of either 10 μM BAY11-7082 or 2.5 or 10 μM PSI (N-benzyloxycarbonyl-Ile-Glu(O-tert-butyl)-Ala-leucinal). Cells were then stained with anti-CD40, anti-CD86, anti-HLA-DR and anti-MHC class I mAb (green lines) and compared with isotype control staining (purple) by flow cytometry.
Human PB monocytes were purified from PBMC by immunomagnetic selection using anti-CD14. They were incubated for 48 h in the presence of 800 U/mL each GM-CSF and IL-4 in RPMI and 10% FCS in the presence or absence of 8 μM BAY 11-7082. Nuclear extracts were prepared and RelB DNA binding was assessed using ELISA, as previously described (O'Sullivan and Thomas, 2002). […] In keeping with the lack of CD40 expression, modified DC were unresponsive to 24 h incubation with 500 ng/mL soluble CD40 ligand trimer (sCD40L, Immunex, Seattle Wash.).
The present inventors examined whether the phenotype of the described dendritic cells that are capable of inducing tolerance when transferred in vivo, is reproducible when dendritic cells are generated with various NT-κB^− inhibitors. Dendritic cells were generated from human monocles for 48 hours in the presence of GM-CSF, IL-4 and in the presence or absence of either 10 […] of the IκB phosphorylation inhibitor BAY11-7082 or 2.5 or 10 μM of the proteasome inhibitor PSI (N-benzyloxycarbonyl-Ile-Glu(O-tert-butyl)-Ala-leucinal).
(In general: A flow cytometer gives signals particle by particle.)

In the next data set the test system is NF-κB subunits. Put plainly: Immunoblot of nuclear and cytoplasmic extracts of BMDCs for NF-κB subunits. The note with it: murine BM precursors 6 days with GM-CSF and IL-4 in the presence of BAY. Type of data set: cell-based. The method, then: To independently assess the relationship between RelB nuclear translocation and tolerance induction, BMDCs were generated in the presence or absence of the compound BAY 11-7082 (BAY). […] Murine BM precursors were incubated for 6 days with GM-CSF and IL-4 to produce BMDCs, in the presence or absence of BAY. All NF-κB subunits were demonstrable in BMDCs generated in the absence of BAY, and were present in both nuclear and cytoplasmic extracts (FIG. 2a). […] However, CD86 was expressed at higher levels in BAY-treated DCs than RelB-deficient DCs. […]
Nuclear and cytoplasmic extracts were prepared as previously described (Pettit et al., 1997) and protein estimations carried out using a Protein Assay kit (Bio-Rad, Hercules, Calif.). […] Following transfer to nitrocellulose (Amersham. Sussex, England), membranes were immunoblotted with either anti-RelB (sc-226), anti-p50 (sc-7178), anti-c-Rel, anti-RelA, or anti-p52 antibodies (all from Santa Cruz Biotechnology) followed by sheep anti-rabbit HRP-conjugated Ig (Silenus, Hawthorn, Australia) and then detected by enhanced chemiluminescence (ECL, Life Technologies, MO, USA) according to the manufacturer's instructions (Amersham).
On the technique in general: A western blot detects proteins with antibodies after separation by electrophoresis.

For data set [2], the system named is RelB. Put plainly: RelB DNA binding ELISA on nuclear extracts of monocyte-derived DC. It is filed as cell-based. The note with it: human PB monocytes 48 h with GM-CSF and IL-4, 8 μM BAY 11-7082. As for the experimental part:
FIG. 7 is a graphical representation showing that nuclear extracts from BAY-treated monocyte-derived DC (MDDC) lack RelB-DNA binding and are unresponsive to LPS. MDDC were generated for 48 h from PB monocytes in the presence of GM-CSF and IL-4 in the presence (BAY DC) or absence (control DC) of 8 μM BAY, then stimulated with 1 μg/mL LPS for 24 hr. Nuclear extracts were prepared and analysed for NFkB DNA binding by ELISA.
Human PB monocytes were purified from PBMC by immunomagnetic selection using anti-CD14. They were incubated for 48 h in the presence of 800 U/mL each GM-CSF and IL-4 in RPMI and 10% FCS in the presence or absence of 8 μM BAY 11-7082. Nuclear extracts were prepared and RelB DNA binding was assessed using ELISA, as previously described (O'Sullivan and Thomas, 2002). […]
p50 and RelB DNA binding was detected by ELISA using a Mercury Transfactor p50 Kit (Clontech, Calif.). 10 μg of nuclear extract were bound to wells coated with NF-κB consensus oligonucleotide then incubated with either anti-RelB (sc-226) or anti-p50 (sc-7178), followed by anti-rabbit […] Ig (Silenus) and then detected by measuring color development of TMB at 650 nm using a Multiskan plate reader (Labsystems) (O'Sullivan and Thomas, 2002).
Background: An ELISA detects its analyte on a solid surface through an enzyme-linked reagent.

For a further data set, the system named is NF-κB. To be noted: Pierce et al., 1997; cited from earlier work.
In data set [3] the test system is RelB. The note with it: LPS-treated monocyte-derived dendritic cells; cited from earlier work.
Setting [4] is: murine BMDCs generated in the presence of BAY.

With `Cc1ccc(S(=O)(=O)/C=C/C#N)cc1` [BAY 11-7082], in the data set on BMDCs (concentrations higher than the minimum that suppresses CD40), the “toxicity: yield and viability of BM DC cultures” value is “more toxic and affect yield and viability”. Moreover, in the data set on BMDCs (setting [4]), the “MHC class I and class II expression” value was “expressed reduced levels of MHC class I and class II”; the “cell surface CD40 expression” value was “lacked cell surface CD40 expression”. Also, in data set [1], the CD40 expression entry was “CD40 expression was suppressed”; the “CD86 and MHC class I expression” value was “CD86 and MHC class I expression were not changed”; the HLA-DR expression result is “HLA-DR was reduced”. Besides, in the data set with NF-κB subunits, the “NFκB subunit immunoreactivity in nuclear and cytoplasmic extracts” value is reported as “in the cytoplasm but not the nucleus”. Besides, in the data set with RelB [2], the “RelB nuclear DNA binding activity” value is reported as “lacked RelB nuclear DNA binding activity”. The “TNF-α-stimulated NF-κB translocation” value with NF-κB is recorded as “block TNF-α-stimulated NF-κB translocation through inhibition of IκB phosphorylation”.
Regarding `CC[C@H](C)[C@H](NC(=O)OCc1ccccc1)C(=O)N[C@@H](CCC(=O)OC(C)(C)C)C(=O)N[C@@H](C)C(=O)N[C@H](C=O)CC(C)C` [PSI, N-benzyloxycarbonyl-Ile-Glu(O-tert-butyl)-Ala-leucinal] (Cbz-IE(OtBu)AL-aldehyde), in data set [1], the CD40 expression entry is given as “CD40 expression was suppressed”; the “CD86 and MHC class I expression” value was “CD86 and MHC class I expression were not changed”; the HLA-DR expression entry is “HLA-DR was reduced”.
Regarding `C[S+]([O-])c1ccc(-c2nc(-c3ccncc3)c(-c3ccc(F)cc3)[nH]2)cc1` (stereo not shown) [SB203580], in the data set with RelB [3], the “nuclear RelB translocation” value is given as “blocks nuclear RelB translocation”.
